Experimental data: US20160338351A1, “(S)-ABSCISIC ACID DERIVATIVES FOR ENHANCED GRAPE COLORATION” (Valent BioSciences Corporation, priority 2015, published 2016)
Structures can show the parent of a compound that is named as a salt.

Assays:
Type in all cases: in vivo, Vitis vinifera
[1] = tested on: Crimson Seedless grape clusters; experiment: Field study, Example 1: visual rating of red grape coloration, % of berries with marketable color; details: for activity relative to S-ABA for enhancing grape coloration: from % marketable color data, 40 ppm vs 400 ppm S-ABA
Protocol: (§1) A field study was conducted in California to compare the efficacy of S-ABA to 3′-methyl-(S)-ABA in promoting red grape coloration. S-ABA and 3′-methyl-(S)-ABA were formulated as aqueous solutions of the corresponding potassium salt to the desired concentrations with the final pHs being between 6.5 and 7.2. Individual Crimson Seedless grape clusters were selected and tagged, with 20 tagged clusters per treatment. The treatments were applied as cluster-directed sprays using a trigger sprayer at 15 to 20 mL per cluster to ensured good coverage of the grapes. Application of 15 to 20 milliliters per cluster simulates application of about 109 gallons per acre directed at the approximately 40 clusters per vine in a vineyard with 518 vines per acre. Based on these estimates, Applicant determined the approximate grams per acre. The equation is as follows: 20 ml/cluster×40 cluster/vine=800 ml/vine×518 vine/acre=(414,400 ml/acre)/(1000 ml/liter)=414 liters/acre. An estimation of grams per acre was made by multiplying the mg per cluster with 20,720 clusters/acre (40 clusters/vine×518 vines/acre=20,720 clusters/acre).
(§2) Periodically after the treatments, the grape clusters were evaluated for color development by visual ratings over a six-week period. The coloration was graded on a 1 to 8 grading scale, where a rating of 1 has very little or no red color and a rating of 8 has a deep or dark red color. The percentages of berries that reached marketable red coloration for each cluster were averaged and recorded for each treatment. Additionally, representative berries from each treatment group were harvested about four weeks after treatment and analyzed for anthocyanin content.

[2] = tested on: Crimson Seedless grape clusters; experiment: Field study, Example 1: anthocyanin content of berries harvested about four weeks after treatment; details: for Total Anthocyanin Content: berries harvested about four weeks after treatment
Protocol: as §1, §2

Crimson Seedless grapes = experiment: Trial, Example 2: visual color rating of grape clusters on a 1 to 8 scale; set-up: key to Color Ratings: 1 = little/no red color, 8 = deep/dark red color; details: for Color Ratings: applied day 0 and day 11, 1 to 8 grading scale; for potency in promoting red color development compared with another compound: Crimson Seedless grapes; for red color development in comparison with the untreated control: six-week evaluation period
Protocol: Another trial was conducted in California on Crimson Seedless grapes to compare the efficacy of S-ABA, 3′-methyl-(S)-ABA and 3′-propargyl-(S)-ABA in promoting coloration. All three compounds were formulated as aqueous solutions of the corresponding potassium salt to the desired concentrations, with the final pHs being between 6.5 and 7.2. Individual Crimson Seedless grape clusters were selected and tagged, with 20 tagged clusters per treatment. The solutions were applied as cluster-directed sprays using a trigger sprayer at 15 to 20 milliliters per cluster which ensured good coverage of the grapes. The treatments were applied on day 0 and day 11 of the trial. Periodically during the trial, the grape clusters were evaluated for color development by visual ratings over a six-week period and the coloration was graded on a 1 to 8 grading scale, where a rating of 1 has very little or no red color and a rating of 8 has a deep or dark red color.

[3] = 4 ppm, 0.06-0.08 mg/cluster, 1.2-1.6 g/acre, 3 DAT
[4] = 4 ppm, 0.06-0.08 mg/cluster, 1.2-1.6 g/acre, 10 DAT
[5] = 4 ppm, 0.06-0.08 mg/cluster, 1.2-1.6 g/acre, 14 DAT
[6] = 4 ppm, 0.06-0.08 mg/cluster, 1.2-1.6 g/acre, 21 DAT
[7] = 4 ppm, 0.06-0.08 mg/cluster, 1.2-1.6 g/acre, 31 DAT
[8] = 4 ppm, 0.06-0.08 mg/cluster, 1.2-1.6 g/acre, 41 DAT
[9] = 40 ppm, 0.6-0.8 mg/cluster, 12-16 g/acre, 3 DAT
[10] = 40 ppm, 0.6-0.8 mg/cluster, 12-16 g/acre, 10 DAT
[11] = 40 ppm, 0.6-0.8 mg/cluster, 12-16 g/acre, 14 DAT
[12] = 40 ppm, 0.6-0.8 mg/cluster, 12-16 g/acre, 21 DAT
[13] = 40 ppm, 0.6-0.8 mg/cluster, 12-16 g/acre, 31 DAT
[14] = 40 ppm, 0.6-0.8 mg/cluster, 12-16 g/acre, 41 DAT (end of six-week evaluation)

Compound: CC1=C(C)[C@](O)(/C=C/C(C)=C\C(=O)O)C(C)(C)CC1=O [3′-methyl-(S)-ABA, K^+ salt, (2Z,4E)-5-((S)-1-hydroxy-2,3,6,6-tetramethyl-4-oxocyclohex-2-en-1-yl)-3-methylpenta-2,4-dienoic acid]
- coloration effect compared with 6 to 8 mg per cluster (400 ppm) of S-ABA ([1]; 0.6 to 0.8 mg per cluster (40 ppm, 15 to 20 mL)): even more efficacious
- Coloring Ratings, % of the berries with marketable color ([1]; 20 ppm, 0.3-0.4 mg/cluster, 6-8 grams/acre, 7 DAT): 34%
- Coloring Ratings, % of the berries with marketable color ([1]; 20 ppm, 0.3-0.4 mg/cluster, 6-8 grams/acre, 14 DAT): 67%
- Coloring Ratings, % of the berries with marketable color ([1]; 20 ppm, 0.3-0.4 mg/cluster, 6-8 grams/acre, 27 DAT): 79%
- Coloring Ratings, % of the berries with marketable color ([1]; 20 ppm, 0.3-0.4 mg/cluster, 6-8 grams/acre, 33 DAT): 85%
- Coloring Ratings, % of the berries with marketable color ([1]; 20 ppm, 0.3-0.4 mg/cluster, 6-8 grams/acre, 43 DAT): 89%
- Coloring Ratings, % of the berries with marketable color ([1]; 40 ppm, 0.6-0.8 mg/cluster, 12-16 grams/acre, 7 DAT): 52%
- Coloring Ratings, % of the berries with marketable color ([1]; 40 ppm, 0.6-0.8 mg/cluster, 12-16 grams/acre, 14 DAT): 83%
- Coloring Ratings, % of the berries with marketable color ([1]; 40 ppm, 0.6-0.8 mg/cluster, 12-16 grams/acre, 27 DAT): 92%
- Coloring Ratings, % of the berries with marketable color ([1]; 40 ppm, 0.6-0.8 mg/cluster, 12-16 grams/acre, 33 DAT): 95%
- Coloring Ratings, % of the berries with marketable color ([1]; 40 ppm, 0.6-0.8 mg/cluster, 12-16 grams/acre, 43 DAT): 97%
- Coloring Ratings, % of the berries with marketable color ([1]; 200 ppm, 3-4 mg/cluster, 60-80 grams/acre, 7 DAT): 72%
- Coloring Ratings, % of the berries with marketable color ([1]; 200 ppm, 3-4 mg/cluster, 60-80 grams/acre, 14 DAT): 89%
- Coloring Ratings, % of the berries with marketable color ([1]; 200 ppm, 3-4 mg/cluster, 60-80 grams/acre, 27 DAT): 95%
- Coloring Ratings, % of the berries with marketable color ([1]; 200 ppm, 3-4 mg/cluster, 60-80 grams/acre, 33 DAT): 95%
- Coloring Ratings, % of the berries with marketable color ([1]; 200 ppm, 3-4 mg/cluster, 60-80 grams/acre, 43 DAT): 100%
- Coloring Ratings, % of the berries with marketable color ([1]; 400 ppm, 6-8 mg/cluster, 120-160 grams/acre, 7 DAT): 76%
- Coloring Ratings, % of the berries with marketable color ([1]; 400 ppm, 6-8 mg/cluster, 120-160 grams/acre, 14 DAT): 98%
- Coloring Ratings, % of the berries with marketable color ([1]; 400 ppm, 6-8 mg/cluster, 120-160 grams/acre, 27 DAT): 99%
- Coloring Ratings, % of the berries with marketable color ([1]; 400 ppm, 6-8 mg/cluster, 120-160 grams/acre, 33 DAT): 99%
- Coloring Ratings, % of the berries with marketable color ([1]; 400 ppm, 6-8 mg/cluster, 120-160 grams/acre, 43 DAT): 99%
- marketable coloration ([1]; 400 ppm, 6 to 8 mg per cluster, 15 to 20 mL, in two weeks): ~90%
- activity relative to S-ABA for enhancing grape coloration [1]: approximately 10 times
- activity relative to S-ABA for enhancing grape coloration ([1]; listed as 3′-methyl-(S)-abscisic acid): ten times as effective as S-ABA
- Total Anthocyanin Content ([2]; 0.3-0.4 mg/cluster (20 ppm, 15-20 mL)): 68 mg/L
- Total Anthocyanin Content ([2]; 0.6-0.8 mg/cluster (40 ppm, 15-20 mL)): 78 mg/L
- Total Anthocyanin Content ([2]; 3-4 mg/cluster (200 ppm, 15-20 mL)): 181 mg/L
- Total Anthocyanin Content ([2]; 6-8 mg/cluster (400 ppm, 15-20 mL)): 247 mg/L
- activity relative to S-ABA in promoting Crimson Seedless grape coloration ([2]; from anthocyanin analysis of Table 2): approximately 10 times
- calculated relative potency versus S-ABA ([2]; rate of S-ABA needed to achieve the same effect): 8.4 times
- Color Ratings (Crimson Seedless grapes; [3]): 1
- Color Ratings (Crimson Seedless grapes; [4]): 1.6
- Color Ratings (Crimson Seedless grapes; [5]): 1.9
- Color Ratings (Crimson Seedless grapes; [6]): 2.4
- Color Ratings (Crimson Seedless grapes; [7]): 2.7
- Color Ratings (Crimson Seedless grapes; [8]): 2.8
- Color Ratings (Crimson Seedless grapes; 20 ppm, 6-8 g/acre, 3 DAT): 1.3
- Color Ratings (Crimson Seedless grapes; 20 ppm, 6-8 g/acre, 10 DAT): 1.7
- Color Ratings (Crimson Seedless grapes; 20 ppm, 6-8 g/acre, 14 DAT): 2.3
- Color Ratings (Crimson Seedless grapes; 20 ppm, 6-8 g/acre, 21 DAT): 2.9
- Color Ratings (Crimson Seedless grapes; 20 ppm, 6-8 g/acre, 31 DAT): 3.5
- Color Ratings (Crimson Seedless grapes; 20 ppm, 6-8 g/acre, 41 DAT): 3.5
- Color Ratings (Crimson Seedless grapes; [9]): 1.1
- Color Ratings (Crimson Seedless grapes; [10]): 1.3
- Color Ratings (Crimson Seedless grapes; [11]): 2.7
- Color Ratings (Crimson Seedless grapes; [12]): 3.9
- Color Ratings (Crimson Seedless grapes; [13]): 4.7
- Color Ratings (Crimson Seedless grapes; [14]): 5.5
- potency in promoting red color development compared with another compound (Crimson Seedless grapes): more effective than S-ABA
- red color development in comparison with the untreated control (Crimson Seedless grapes): dose-dependent accelerated red color development

Compound: C#CCC1=C(C)[C@](O)(/C=C/C(C)=C\C(=O)O)C(C)(C)CC1=O [3′-propargyl-(S)-ABA, K^+ salt, (2Z,4E)-5-((S)-1-hydroxy-2,6,6-trimethyl-4-oxo-3-(prop-2-yn-1-yl)cyclohex-2-en-1-yl)-3-methylpenta-2,4-dienoic acid]
- Color Ratings (Crimson Seedless grapes; [3]): 1.1
- Color Ratings (Crimson Seedless grapes; [4]): 1.3
- Color Ratings (Crimson Seedless grapes; [5]): 1.5
- Color Ratings (Crimson Seedless grapes; [6]): 1.9
- Color Ratings (Crimson Seedless grapes; [7]): 2.4
- Color Ratings (Crimson Seedless grapes; [8]): 2.4
- Color Ratings (Crimson Seedless grapes; 20 ppm, 6-8 g/acre, 3 DAT): 1.1
- Color Ratings (Crimson Seedless grapes; 20 ppm, 6-8 g/acre, 10 DAT): 1.5
- Color Ratings (Crimson Seedless grapes; 20 ppm, 6-8 g/acre, 14 DAT): 1.8
- Color Ratings (Crimson Seedless grapes; 20 ppm, 6-8 g/acre, 21 DAT): 2.2
- Color Ratings (Crimson Seedless grapes; 20 ppm, 6-8 g/acre, 31 DAT): 2.9
- Color Ratings (Crimson Seedless grapes; 20 ppm, 6-8 g/acre, 41 DAT): 3.1
- Color Ratings (Crimson Seedless grapes; [9]): 1.1
- Color Ratings (Crimson Seedless grapes; [10]): 1.5
- Color Ratings (Crimson Seedless grapes; [11]): 1.8
- Color Ratings (Crimson Seedless grapes; [12]): 2.6
- Color Ratings (Crimson Seedless grapes; [13]): 3.1
- Color Ratings (Crimson Seedless grapes; [14]): 3.3
- potency in promoting red color development compared with another compound (Crimson Seedless grapes): less potent than 3′-methyl-(S)-ABA
- red color development in comparison with the untreated control (Crimson Seedless grapes): accelerated coloration
